Measurements: patent US11987559B1, “1-(4-bromobenzylideneamino)-5-phenylimidazolidine-2,4-dione as an antimicrobial compound” (KING FAISAL UNIVERSITY, priority 2023, dated 2024)

Key:
Type in all cases: cell-based
Bacillus cereus = experiment: agar plate disc-diffusion, antibacterial inhibition zone; settings: nutrient agar, 37° C., 48 hours
Experimental: (§1) The agar plate disc-diffusion method was applied. […] The discs were then placed onto the surface of agar plates (nutrient agar for bacteria and Sabouraud's dextrose agar for fungi) seeded with the test organism. Each plate contained 15 mL of the agar medium, previously seeded with 0.2 mL of the broth culture of each organism pregrown for 18 hours. The plates were incubated at 37° C. for 48 hours, and 72 hours for fungi. The inhibition zones were measured in millimeters (mm). Discs impregnated with DMSO were used as a control, and its inhibition zone was subtracted from the tested compound's actual inhibition zone.

Escherichia coli = experiment: as above; settings: nutrient agar, 37° C., 48 hours
Experimental: as §1

Pseudomonas aeruginosa = experiment: as above; settings: nutrient agar, 37° C., 48 hours
Experimental: as §1

Staphylococcus aureus = experiment: as above; settings: nutrient agar, 37° C., 48 hours
Experimental: as §1

Aspergillus flavus = experiment: agar plate disc-diffusion, antifungal inhibition zone; settings: Sabouraud's dextrose agar, 72 hours
Experimental: as §1

[1] = system: Chrysosporium keratinophilum; experiment: as above; settings: Sabouraud's dextrose agar, 72 hours
Experimental: as §1

different microbes = experiment: antimicrobial testing, overall statement; settings: result in words; bacteria and fungi of tables 1, 2
Experimental: The agar plate disc-diffusion method was applied. Sterilized filter papers (6 mm in diameter) were wetted with 10 μL of a solution of 1-(4-bromobenzylideneamino)-5-phenylimidazolidine-2,4-dione (4) to be tested, containing 10 mg/mL in DMSO, and the discs were allowed to air dry. The discs were then placed onto the surface of agar plates (nutrient agar for bacteria and Sabouraud's dextrose agar for fungi) seeded with the test organism. Each plate contained 15 mL of the agar medium, previously seeded with 0.2 mL of the broth culture of each organism pregrown for 18 hours. The plates were incubated at 37° C. for 48 hours, and 72 hours for fungi. The inhibition zones were measured in millimeters (mm). Discs impregnated with DMSO were used as a control, and its inhibition zone was subtracted from the tested compound's actual inhibition zone.

[2] = A = concentration of comp. = 10,000 μL
[3] = B = concentration of comp. = 30.000 μL
[4] = C = concentration of comp. = 50,000 μL

Row | Compound | inhibition zone (Bacillus cereus; [2]) | inhibition zone (Bacillus cereus; [3]) | inhibition zone (Bacillus cereus; [4]) | inhibition zone (Escherichia coli; [2]) | inhibition zone (Escherichia coli; [3]) | inhibition zone (Escherichia coli; [4]) | inhibition zone (Pseudomonas aeruginosa; [2]) | inhibition zone (Pseudomonas aeruginosa; [3]) | inhibition zone (Pseudomonas aeruginosa; [4]) | inhibition zone (Staphylococcus aureus; [2]) | inhibition zone (Staphylococcus aureus; [3]) | inhibition zone (Staphylococcus aureus; [4]) | inhibition zone (Aspergillus flavus; [2]) | inhibition zone (Aspergillus flavus; [3]) | inhibition zone (Aspergillus flavus; [4]) | inhibition zone [1, 2] | inhibition zone [1, 3] | inhibition zone [1, 4] | antimicrobials activities against different microbes (different microbes)
1 | O=C1NC(=O)N(/N=C/c2ccc(Br)cc2)C1c1ccccc1 (stereo not shown) [Compound 4, 1-(4-bromobenzylideneamino)-5-phenylimidazolidine-2,4-dione] | 27 mm | 29 mm | 28 mm | 24 mm | 30 mm | 48 mm | 23 mm | 27 mm | 34 mm | 15 mm | 23 mm | 26 mm | 19 mm | 24 mm | 35 mm | 26 mm | 29 mm | 45 mm | excellent
2 | O=C(O)c1cn(C2CC2)c2cc(N3CCNCC3)c(F)cc2c1=O [Cip., reference compound] | 29 mm | 30 mm | 42 mm | 30 mm | 39 mm | 60 mm | 29 mm | 30 mm | 53 mm | 43 mm | 44 mm | 53 mm | 29 mm | 30 mm | 42 mm | 29 mm | 30 mm | 53 mm | 
